Consider one compound from US20140039047A1, “METHODS FOR REGULATING SIRTUIN GENE EXPRESSION” (priority 2011, published 2014).

Test in all cases: Quantitative PCR of sirtuin gene expression in canine adipocytes treated with Equol
Common to all, as to format: cell-based
Holding throughout (settings): 24 hours, terminally differentiated canine adipocytes, normalized to cyclophilin A (PPIA), n=3

Test [1] concerns SIRT3. Here is the method: (§1) Treatment: Terminally differentiated canine adipocytes were exposed to 200, 25, and 0 uM Equol for 24 hours. Cells were collected for RNA isolation.
(§2) RNA Isolation: Treatment cell samples were vortexed and homogenized using a Quiashredder (Qiagen, Valencia, Calif.) column according to manufacturer's directions. The homogenized lysate was collected and 1 equal volume of 64% ethanol was added to it. This mixture was then applied to an RNAqueous™ filter cartridge, (Ambion Inc., Austin, Tex.) 700 uL at a time, and centrifuged for one minute at 10,000 rpm. The cartridge was washed using 700 uL wash solution #1 and 500 uL wash solution #⅔ with centrifugation at 10,000 rpm for one minute for each wash. The filter cartridge was dried by centrifugation (10,000 rpm) for one minute. RNA was eluted three times by centrifugation (as above) using 30 uL aliquots of 70-80° C. elution solution. The resulting RNA was DNAse-treated and quantitated in a Beckman DU 640B spectrophotometer (Beckman Coulter, Inc., Brea, Calif.) at 260 nm. Additionally, quantity and quality were assessed using a bioanalyzer (Agilent, Santa Clara, Calif.) according to manufacturer's directions.
(§3) Quantitative PCR: All samples were run singularly against each primer/probe set to determine what standard curve(s) should be used. Standard curves were generated using serial dilutions of RNA from experimental samples with the lowest CT (cycle threshold) for a given target. 1-2 samples were re-reverse transcribed and a 1:5 serial dilution were used as the standard curve for a given target. Targets run included sirtuin −1, −2, −3 and −6. Values were normalized to cyclophilin A (PPIA) levels as determined by quantitative PCR. Inductions were calculated from each of the lowest sample's normalized value. Each set was run with n=3.

Test [2] concerns SIRT1. Here is the method: as §1, §2, §3
The subject of test [3] is SIRT6. As for the experimental part: as §1, §2, §3
Test [4] relates to SIRT2. Here is the method: as §1, §2, §3

Take `Oc1ccc([C@H]2COc3cc(O)ccc3C2)cc1` [Equol]: the figures for the “Expression of SIRT3 gene (relative expression)” value in test [1] (25 uM Equol) and in test [1] (200 uM Equol) were 10.86 and 17.21, respectively. Besides, the results for the “Expression of SIRT1 gene (relative expression)” value in test [2] (25 uM Equol) and in test [2] (200 uM Equol) were 1.17 and 1.80, respectively. The “Expression of SIRT6 gene (relative expression)” value in test [3] (25 uM Equol) is on record as 1.10; in test [3] (200 uM Equol) it was 1.23. Further, the “Expression of SIRT2 gene (relative expression)” value in test [4] (25 uM Equol) amounted to 1.22; in test [4] (200 uM Equol), 2.37.
